In patent publication US20160319239A1, “COMPOSITIONS AND METHODS FOR CULTURING CELLS FROM NORMAL HUMAN TUBO-OVARIAN EPITHELIUM AND HUMAN TUBO-OVARIAN TUMORS” (Whitehead Institute for Biomedical Research, priority 2011, published 2016):

Tested on: OCI ovarian tumor lines (P7a, P2a, C2p) and ATCC/ECACC ovarian tumor lines (ES2 and OV90)
Experiment: Alamar Blue viable cell assay with serial dilutions of paclitaxel or cisplatin, OCI vs ATCC/ECACC lines
Format: cell-based, human
Conditions: WIT-oc medium, 5000 cells/well, 72 hrs drug incubation
Method: The next day serial dilutions of paclitaxel were added to the plate.
The next day serial dilutions of cisplatin were added to the plate. […] There was a dramatic difference in the effect of the paclitaxel or cisplatin on OCI cell lines vs. ATCC/ECACC cell lines.
Cisplatin is an example of a chemotherapeutic drug that causes DNA cross linking. Cisplatin binds to DNA and chemically crosslinks the two strands, which causes DNA damage during cell division. This elicits repair mechanisms, which in turn activate apoptosis when repair proves impossible. We plated the OCI ovarian tumor lines (P7a, P2a, C2p) and ATCC/ECACC ovarian tumor lines (ES2 and OV90) in WIT-oc medium (5000 cells/well) in plates in triplicate. The next day serial dilutions of cisplatin were added to the plate.

N.N.[Cl][Pt][Cl] [cisplatin]
concentration that produced a 50% decrease in tumor cell numbers (LD90), fold higher in OCI lines compared to ATCC/ECACC lines: more than 6 fold
